Experimental data: PubChem BioAssay AID2060504 (Molecular Pharmacology Branch, DTP, NCI, 2025)

Test system: 636577-100-R-J1-PDC complex spheroid viability
Experiment: Anticancer human tumor 636577-100-R-J1-PDC patient-derived endometrial adenocarcinoma cell line growth inhibition [GQUAD]
Settings: for IC50: curve of first compound; for viability, T/C: stronger effect = lower value
Procedure, shortened: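 Multi-cell-type spheroids of tumor cells with HUVEC and mesenchymal stem cells, treated with drug combinations. Concentrations descend in half-log steps from near clinical Cmax, or from 10 microM where Cmax is unknown; viability read-out.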

[1] = second compound 0.0316 µM, first compound 0.0316 µM
[2] = second compound 0.0316 µM, first compound 0.1 µM
[3] = second compound 0.0316 µM, first compound 0.316 µM
[4] = second compound 0.0316 µM, first compound 1 µM
[5] = second compound 0.0316 µM, first compound 3.16 µM
[6] = second compound 0.0316 µM, first compound 10 µM
[7] = second compound 0.1 µM, first compound 0.0316 µM
[8] = second compound 0.1 µM, first compound 0.1 µM
[9] = second compound 0.1 µM, first compound 0.316 µM
[10] = second compound 0.1 µM, first compound 1 µM
[11] = second compound 0.1 µM, first compound 3.16 µM
[12] = second compound 0.1 µM, first compound 10 µM
[13] = second compound 0.316 µM, first compound 0.0316 µM
[14] = second compound 0.316 µM, first compound 0.1 µM
[15] = second compound 0.316 µM, first compound 0.316 µM
[16] = second compound 0.316 µM, first compound 1 µM
[17] = second compound 0.316 µM, first compound 3.16 µM
[18] = second compound 0.316 µM, first compound 10 µM
[19] = second compound 1 µM, first compound 0.0316 µM
[20] = second compound 1 µM, first compound 0.1 µM
[21] = second compound 1 µM, first compound 0.316 µM
[22] = second compound 1 µM, first compound 1 µM
[23] = second compound 1 µM, first compound 3.16 µM
[24] = second compound 1 µM, first compound 10 µM
[25] = second compound 3.16 µM, first compound 0.0316 µM
[26] = second compound 3.16 µM, first compound 0.1 µM
[27] = second compound 3.16 µM, first compound 0.316 µM
[28] = second compound 3.16 µM, first compound 1 µM
[29] = second compound 3.16 µM, first compound 3.16 µM
[30] = second compound 3.16 µM, first compound 10 µM
[31] = second compound 10 µM, first compound 0.0316 µM
[32] = second compound 10 µM, first compound 0.1 µM
[33] = second compound 10 µM, first compound 0.316 µM
[34] = second compound 10 µM, first compound 1 µM
[35] = second compound 10 µM, first compound 3.16 µM
[36] = second compound 10 µM, first compound 10 µM
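Note: viability read after seven days of drug exposure.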
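Throughout, for viability, T/C: luminescence signal used as a proxy for viable cells; 100% = DMSO vehicle control wells.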

CC(C)n1c(=O)n(C)c2cnc3cc(F)c(-c4ccc(OCCCN5CCCCC5)nc4)cc3c21 + Cc1[nH]c2ccc(F)cc2c1-c1nc2c3cccnc3c3ncccc3c2[nH]1
IC50 (second compound 0.0316 µM): > 10000 nM
IC50 (second compound 0.1 µM): 10000 nM
IC50 (second compound 0.316 µM): 7080 nM
IC50 (second compound 1 µM): 31.6 nM
IC50 (second compound 3.16 µM): 3590 nM
IC50 (second compound 10 µM): 6960 nM
viability, T/C [1]: 73.1%
viability, T/C [2]: 74.1%
viability, T/C [3]: 88.2%
viability, T/C [4]: 30%
viability, T/C [5]: 99.5%
viability, T/C [6]: 52.4%
viability, T/C [7]: 74.4%
viability, T/C [8]: 91%
viability, T/C [9]: 70.8%
viability, T/C [10]: 37.9%
viability, T/C [11]: 69.7%
viability, T/C [12]: 48.6%
viability, T/C [13]: 80.9%
viability, T/C [14]: 96.9%
viability, T/C [15]: 60.6%
viability, T/C [16]: 58.2%
viability, T/C [17]: 87.7%
viability, T/C [18]: 38.5%
viability, T/C [19]: 57.2%
viability, T/C [20]: 43.3%
viability, T/C [21]: 60.9%
viability, T/C [22]: 54.3%
viability, T/C [23]: 98.5%
viability, T/C [24]: 46.8%
viability, T/C [25]: 57.1%
viability, T/C [26]: 54.3%
viability, T/C [27]: 59.3%
viability, T/C [28]: 70.8%
viability, T/C [29]: 47%
viability, T/C [30]: 29.8%
viability, T/C [31]: 71.9%
viability, T/C [32]: 50.6%
viability, T/C [33]: 85.5%
viability, T/C [34]: 89.3%
viability, T/C [35]: 70%
viability, T/C [36]: 40%

CC1COCCN1c1cc(-c2ccnn2C)c2ccnc(-c3ccn[nH]3)c2n1 (stereo not given) + Cc1[nH]c2ccc(F)cc2c1-c1nc2c3cccnc3c3ncccc3c2[nH]1
IC50 (second compound 0.0316 µM): 96.7 nM
IC50 (second compound 0.1 µM): 84.9 nM
IC50 (second compound 0.316 µM): 105 nM
IC50 (second compound 1 µM): < 31.6 nM
IC50 (second compound 3.16 µM): < 31.6 nM
IC50 (second compound 10 µM): < 31.6 nM
viability, T/C [1]: 89.7%
viability, T/C [2]: 48.1%
viability, T/C [3]: 26.9%
viability, T/C [4]: 10.8%
viability, T/C [5]: 7.12%
viability, T/C [6]: 4.03%
viability, T/C [7]: 59.4%
viability, T/C [8]: 49.1%
viability, T/C [9]: 23.9%
viability, T/C [10]: 11.4%
viability, T/C [11]: 8.62%
viability, T/C [12]: 4.31%
viability, T/C [13]: 59.4%
viability, T/C [14]: 52.9%
viability, T/C [15]: 25.8%
viability, T/C [16]: 14.5%
viability, T/C [17]: 8.77%
viability, T/C [18]: 4.31%
viability, T/C [19]: 39%
viability, T/C [20]: 32.5%
viability, T/C [21]: 23%
viability, T/C [22]: 15%
viability, T/C [23]: 8.69%
viability, T/C [24]: 3.56%
viability, T/C [25]: 16.9%
viability, T/C [26]: 18.7%
viability, T/C [27]: 15.5%
viability, T/C [28]: 9.23%
viability, T/C [29]: 6.94%
viability, T/C [30]: 3.78%
viability, T/C [31]: 41.6%
viability, T/C [32]: 24.7%
viability, T/C [33]: 20.6%
viability, T/C [34]: 13.2%
viability, T/C [35]: 8.7%
viability, T/C [36]: 4.88%

CC1COCCN1c1cc(C2(O)CC3CCC(C2)O3)c2cnn(-c3ccn[nH]3)c2n1 (stereo not given) + Cc1[nH]c2ccc(F)cc2c1-c1nc2c3cccnc3c3ncccc3c2[nH]1
IC50 (second compound 0.0316 µM): 70.6 nM
IC50 (second compound 0.1 µM): 63.3 nM
IC50 (second compound 0.316 µM): 59.2 nM
IC50 (second compound 1 µM): < 31.6 nM
IC50 (second compound 3.16 µM): < 31.6 nM
IC50 (second compound 10 µM): < 31.6 nM
viability, T/C [1]: 82.9%
viability, T/C [2]: 33.8%
viability, T/C [3]: 18.5%
viability, T/C [4]: 7.11%
viability, T/C [5]: 3.67%
viability, T/C [6]: 1.06%
viability, T/C [7]: 71.2%
viability, T/C [8]: 35.3%
viability, T/C [9]: 18.7%
viability, T/C [10]: 8.6%
viability, T/C [11]: 3.75%
viability, T/C [12]: 1.19%
viability, T/C [13]: 67.1%
viability, T/C [14]: 36.1%
viability, T/C [15]: 15.7%
viability, T/C [16]: 8.55%
viability, T/C [17]: 4.01%
viability, T/C [18]: 1.3%
viability, T/C [19]: 32%
viability, T/C [20]: 26%
viability, T/C [21]: 14.9%
viability, T/C [22]: 8.44%
viability, T/C [23]: 3.77%
viability, T/C [24]: 1.61%
viability, T/C [25]: 17.9%
viability, T/C [26]: 14.8%
viability, T/C [27]: 10.7%
viability, T/C [28]: 7.29%
viability, T/C [29]: 3.77%
viability, T/C [30]: 1.49%
viability, T/C [31]: 24.6%
viability, T/C [32]: 21.4%
viability, T/C [33]: 15.2%
viability, T/C [34]: 8.61%
viability, T/C [35]: 4.18%
viability, T/C [36]: 1.5%

COc1ccc([C@@H](O)c2cc(-c3ncnc4cc(N5CCOCC5)ccc34)c(F)cc2Cl)nn1 + Cc1[nH]c2ccc(F)cc2c1-c1nc2c3cccnc3c3ncccc3c2[nH]1
IC50 (second compound 0.0316 µM): 670 nM
IC50 (second compound 0.1 µM): 586 nM
IC50 (second compound 0.316 µM): 682 nM
IC50 (second compound 1 µM): 1080 nM
IC50 (second compound 3.16 µM): < 31.6 nM
IC50 (second compound 10 µM): 858 nM
viability, T/C [1]: 59.3%
viability, T/C [2]: 79.9%
viability, T/C [3]: 103%
viability, T/C [4]: 26.9%
viability, T/C [5]: 47.1%
viability, T/C [6]: 26.8%
viability, T/C [7]: 44.1%
viability, T/C [8]: 105%
viability, T/C [9]: 63.6%
viability, T/C [10]: 31.3%
viability, T/C [11]: 54.6%
viability, T/C [12]: 28.8%
viability, T/C [13]: 72.8%
viability, T/C [14]: 105%
viability, T/C [15]: 66%
viability, T/C [16]: 47.4%
viability, T/C [17]: 48.6%
viability, T/C [18]: 30.1%
viability, T/C [19]: 71%
viability, T/C [20]: 63.6%
viability, T/C [21]: 60.5%
viability, T/C [22]: 53.6%
viability, T/C [23]: 35%
viability, T/C [24]: 24.8%
viability, T/C [25]: 40%
viability, T/C [26]: 38.4%
viability, T/C [27]: 43.3%
viability, T/C [28]: 33.5%
viability, T/C [29]: 20.1%
viability, T/C [30]: 16%
viability, T/C [31]: 70.2%
viability, T/C [32]: 62.5%
viability, T/C [33]: 64.2%
viability, T/C [34]: 44.8%
viability, T/C [35]: 36.7%
viability, T/C [36]: 22.3%

O=C(c1cc(Cc2n[nH]c(=O)c3ccccc23)ccc1F)N1CCN(C(=O)C2CC2)CC1 + Cc1[nH]c2ccc(F)cc2c1-c1nc2c3cccnc3c3ncccc3c2[nH]1
IC50 (second compound 0.0316 µM): 305 nM
IC50 (second compound 0.1 µM): 3060 nM
IC50 (second compound 0.316 µM): 2690 nM
IC50 (second compound 1 µM): 5550 nM
IC50 (second compound 3.16 µM): < 31.6 nM
IC50 (second compound 10 µM): 3280 nM
viability, T/C [1]: 103%
viability, T/C [2]: 79.4%
viability, T/C [3]: 46.5%
viability, T/C [4]: 58.6%
viability, T/C [5]: 50.4%
viability, T/C [6]: 40.6%
viability, T/C [7]: 100%
viability, T/C [8]: 96.5%
viability, T/C [9]: 65.2%
viability, T/C [10]: 43.7%
viability, T/C [11]: 67.6%
viability, T/C [12]: 36.9%
viability, T/C [13]: 90.1%
viability, T/C [14]: 75.3%
viability, T/C [15]: 66.7%
viability, T/C [16]: 61.6%
viability, T/C [17]: 53.7%
viability, T/C [18]: 32.4%
viability, T/C [19]: 60.6%
viability, T/C [20]: 65.7%
viability, T/C [21]: 65.6%
viability, T/C [22]: 57.9%
viability, T/C [23]: 63.4%
viability, T/C [24]: 37%
viability, T/C [25]: 39.4%
viability, T/C [26]: 40.7%
viability, T/C [27]: 43.5%
viability, T/C [28]: 43.3%
viability, T/C [29]: 31.6%
viability, T/C [30]: 29.9%
viability, T/C [31]: 34.6%
viability, T/C [32]: 64.9%
viability, T/C [33]: 57.3%
viability, T/C [34]: 41.9%
viability, T/C [35]: 54%
viability, T/C [36]: 33%
